The source made the active and inactive calls.
Experiments:
[1] = biological target: T1, Calpain-2 catalytic subunit (Sus scrofa, UniProt P43367); experiment: m-calpain protease blockers, concentration series – biochemical, fluorogenic peptide substrate, dose response (AID 1420); format: functional
T1 sequence (P43367 whole entry): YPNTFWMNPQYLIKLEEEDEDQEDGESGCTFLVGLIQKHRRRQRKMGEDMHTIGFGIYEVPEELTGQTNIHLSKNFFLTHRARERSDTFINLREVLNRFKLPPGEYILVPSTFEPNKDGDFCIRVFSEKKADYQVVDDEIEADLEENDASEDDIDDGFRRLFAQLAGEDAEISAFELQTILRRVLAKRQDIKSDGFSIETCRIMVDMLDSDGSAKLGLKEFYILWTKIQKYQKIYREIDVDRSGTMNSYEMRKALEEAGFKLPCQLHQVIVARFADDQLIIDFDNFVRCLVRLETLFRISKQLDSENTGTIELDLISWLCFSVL

[2] = biological target: T2, Small ubiquitin-related modifier 1 (Homo sapiens, UniProt P63165); experiment: SUMO1 protein-protein binding blockers, potency – biochemical, FRET, dose response (AID 624383); format: functional; settings: read-out: IC50_Mean
[3] = biological target: Eukaryotic translation initiation factor 4E (Mus musculus, UniProt P63073); experiment: blockers of eIF4G binding by eIF4E – biochemical, TR-FRET, dose response (AID 855); format: functional;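 also: potency for disrupting eIF4E binding to eIF4GI seen as loss of FRET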
[4] = antiviral protection against BTV-induced cell death – arbovirus, BSR cells, confirmation (AID 1250); format: functional;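 also: protection from viral cytopathic effect measured as cell viability by ATP luminescence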
[5] = biological target: T2, Small ubiquitin-related modifier 1; experiment: SUMO1 protein interaction blockers, potency – biochemical, fluorescence polarization, uHTS hits, dose response (AID 624382); format: functional; settings: read-out: IC50_Mean
[6] = biological target: Dual specificity protein phosphatase 6 (Rattus norvegicus, UniProt Q64346); experiment: inhibition of rat DUSP6 enzyme activity – biochemical, in vitro, primary screen (AID 425)
[7] = biological target: T3, Dual specificity protein phosphatase 3 (Homo sapiens, UniProt P51452); experiment: VHR1 phosphatase inhibitors, biochemical (AID 1878)
[8] = biological target: T3, Dual specificity protein phosphatase 3; experiment: VHR1 phosphatase inhibitors, primary screen, biochemical, absorbance, uHTS (AID 1654)
[9] = luciferase reporter signal suppression in cells – H4 neuroglioma cells, luminescence, dose response (AID 1990); format: functional, cell-based
[10] = Luminescence Cell-Based Dose Response HTS to Identify Inhibitors of 5'UTR Stem-Loop Driven Prion Protein mRNA Translation in H4 Neuroglioblastoma Cells. [Related pubchem assays: 1827 (Project Summary), 1813 (Primary HTS)]; format: functional
HEK293 = experiment: cells; settings: Homo sapiens
[11] = biological target: Nucleotide-binding oligomerization domain-containing protein 1 (Homo sapiens, UniProt Q9Y239); experiment: blockers of NOD1 pathway activity – revised, SAR follow-up (AID 2333); format: functional
[12] = alpha-synuclein stem-loop luciferase translation blockers – H4 neuroglioma cells, luminescence, confirmation (AID 1988); format: functional, cell-based
Tumor necrosis factor = Tumor necrosis factor (Homo sapiens, UniProt P01375); experiment: analog potency on TNFa NF-kB signaling – cell-based, revised, SAR follow-up (AID 2337); format: functional
[13] = biological target: Sphingosine 1-phosphate receptor 1 (Homo sapiens, UniProt P21453); experiment: Fluorescence-based counterscreen assay for S1P4 agonists: Cell-based dose response high throughput screening assay to identify agonists of the Sphingosine 1-Phosphate Receptor 1 (S1P1). [Related pubchem assays (depositor defined):AID1509, AID1523, AID1801, AID463107, AID463118, AID463119, AID463122, AID463123, AID463129, AID463225, AID504400, AID504460]; format: functional
[14] = biological target: Sphingosine 1-phosphate receptor 4 (Homo sapiens, UniProt O95977); experiment: Fluorescence dose response cell-based high throughput screening assay for agonists of the Sphingosine 1-Phosphate Receptor 4 (S1P4). [Related pubchem assays: 1509 (Primary screen.), 1523 (Confirmation screen in triplicates.)]; format: functional
[15] = biological target: T4, G-protein coupled receptor 55 (Homo sapiens, UniProt Q9Y2T6); experiment: inhibition of LPI-stimulated GPR55 beta-arrestin translocation – imaging, U2OS, beta-arrestin-GFP, LPI agonist, primary screen (AID 2013); format: functional;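 also: antagonist potency measured as reduced agonist-driven arrestin aggregation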
[16] = biological target: T5, G-protein coupled receptor 35 (Homo sapiens, UniProt Q9HC97); experiment: SAR analysis of Antagonists of the GPR35 Receptor using an Image-Based Assay - Set 3. [Related pubchem assays (depositor defined):AID2013, AID2026]; format: functional
[17] = biological target: T5, G-protein coupled receptor 35; experiment: SAR analysis of Agonists of the GPR35 Receptor using an Image-Based Assay - Set 2. [Related pubchem assays (depositor defined):AID2013, AID2026]; format: functional
Cannabinoid receptor 1 [18] = biological target: T6, Cannabinoid receptor 1 (Homo sapiens, UniProt P21554); experiment: SAR analysis of agonists of the Cannabinoid Receptor 1 using an Image-Based Assay - Set 2. [Related pubchem assays (depositor defined):AID2013, AID2026]; format: functional
[19] = biological target: T4, G-protein coupled receptor 55; experiment: blockade of LPI-induced GPR55 arrestin translocation – imaging, U2OS, beta-arrestin-GFP, LPI agonist, set 2, SAR follow-up (AID 2820); format: functional
Cannabinoid receptor 2 [20] = biological target: T7, Cannabinoid receptor 2 (Homo sapiens, UniProt P34972); experiment: SAR analysis of antagonists of the Cannabinoid Receptor 2 using an Image-Based Assay. [Related pubchem assays (depositor defined):AID2013, AID2026]; format: functional
Cannabinoid receptor 2 [21] = biological target: T7, Cannabinoid receptor 2; experiment: SAR analysis of agonists of the Cannabinoid Receptor 2 using an Image-Based Assay. [Related pubchem assays (depositor defined):AID2013, AID2026]; format: functional
[22] = biological target: T8, Short transient receptor potential channel 4 (Mus musculus, UniProt Q9QUQ5); experiment: block of DAMGO-driven TRPC4 calcium entry – cell-based, HEK293 TRPC4/mu-opioid, Fluo-4 calcium, dose response (AID 434942); format: functional;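 also: potency of inhibitors blocking the TRPC4 calcium response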
T8 sequence (Q9QUQ5 whole entry): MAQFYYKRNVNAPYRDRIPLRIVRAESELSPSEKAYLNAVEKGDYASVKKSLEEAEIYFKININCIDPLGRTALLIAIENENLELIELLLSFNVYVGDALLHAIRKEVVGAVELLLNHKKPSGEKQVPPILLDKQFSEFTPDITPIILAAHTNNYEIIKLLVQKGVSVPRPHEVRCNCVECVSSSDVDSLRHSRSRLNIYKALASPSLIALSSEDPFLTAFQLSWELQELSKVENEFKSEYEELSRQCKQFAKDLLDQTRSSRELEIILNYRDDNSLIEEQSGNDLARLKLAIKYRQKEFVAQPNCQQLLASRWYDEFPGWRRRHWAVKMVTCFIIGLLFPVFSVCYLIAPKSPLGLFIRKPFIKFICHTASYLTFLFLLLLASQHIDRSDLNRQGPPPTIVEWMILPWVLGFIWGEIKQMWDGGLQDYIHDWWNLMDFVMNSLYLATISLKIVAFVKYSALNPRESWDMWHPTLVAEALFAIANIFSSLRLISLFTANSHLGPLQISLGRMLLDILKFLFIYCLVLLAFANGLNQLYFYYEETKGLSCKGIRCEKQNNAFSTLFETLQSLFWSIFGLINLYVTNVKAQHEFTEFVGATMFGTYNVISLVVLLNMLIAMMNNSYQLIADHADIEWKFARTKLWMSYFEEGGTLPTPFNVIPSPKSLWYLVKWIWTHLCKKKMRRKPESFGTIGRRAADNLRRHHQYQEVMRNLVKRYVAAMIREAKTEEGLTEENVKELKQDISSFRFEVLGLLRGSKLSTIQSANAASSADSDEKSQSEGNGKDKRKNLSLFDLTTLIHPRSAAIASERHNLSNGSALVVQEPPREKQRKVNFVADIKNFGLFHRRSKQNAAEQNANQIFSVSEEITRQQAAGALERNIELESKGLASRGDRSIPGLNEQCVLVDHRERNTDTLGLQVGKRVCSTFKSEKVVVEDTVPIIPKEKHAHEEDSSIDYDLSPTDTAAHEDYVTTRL

Cannabinoid receptor 1 [23] = biological target: T6, Cannabinoid receptor 1; experiment: SAR analysis of antagonists of the Cannabinoid Receptor 1 using an Image-Based Assay - Set 2. [Related pubchem assays (depositor defined):AID2013, AID2026]; format: functional
Mu-type opioid receptor [24] = biological target: T9, Mu-type opioid receptor (Homo sapiens, UniProt P35372); experiment: mu opioid receptor blockers – image-based, SAR follow-up (AID 2420); format: functional;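 also: compounds added before stimulation of receptor with agonist DAMGO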
[25] = biological target: T10, Kappa-type opioid receptor (Homo sapiens, UniProt P41145); experiment: SAR analysis of small molecule agonists of the kappa opioid receptor via a luminescent beta-arrestin assay. [Related pubchem assays (depositor defined):AID1777, AID1786, AID1966, AID2133, AID2136, AID2348, AID2352, AID2357, AID2359, AID2370, AID2420, AID2478, AID2491, AID2492, AID2493, AID2497, AID2498, AID2500, AID449737, AID488822, AID488842]; format: functional
[26] = biological target: T10, Kappa-type opioid receptor; experiment: kappa opioid receptor activation potency – imaging, image-based, SAR follow-up (AID 2359); format: functional
[27] = biological target: T11, Delta-type opioid receptor (Homo sapiens, UniProt P41143); experiment: DOR agonists, SAR follow-up, image-based (AID 2370); format: functional
[28] = biological target: T11, Delta-type opioid receptor; experiment: delta opioid receptor blockers – image-based, SAR follow-up (AID 2357); format: functional
[29] = biological target: T10, Kappa-type opioid receptor; experiment: kappa opioid receptor blockers, image-based, SAR follow-up (AID 2348); format: functional
Mu-type opioid receptor [30] = biological target: T9, Mu-type opioid receptor; experiment: mu opioid receptor activators, image-based, SAR follow-up (AID 2352); format: functional
[31] = biological target: T10, Kappa-type opioid receptor; experiment: SAR analysis of small molecule agonists of the kappa opioid receptor via a luminescent beta-arrestin assay - Set 3. [Related pubchem assays (depositor defined):AID1777, AID1785, AID1786, AID1966, AID2133, AID2136, AID2284, AID2500]; format: functional

T10 sequence (P41145 whole entry): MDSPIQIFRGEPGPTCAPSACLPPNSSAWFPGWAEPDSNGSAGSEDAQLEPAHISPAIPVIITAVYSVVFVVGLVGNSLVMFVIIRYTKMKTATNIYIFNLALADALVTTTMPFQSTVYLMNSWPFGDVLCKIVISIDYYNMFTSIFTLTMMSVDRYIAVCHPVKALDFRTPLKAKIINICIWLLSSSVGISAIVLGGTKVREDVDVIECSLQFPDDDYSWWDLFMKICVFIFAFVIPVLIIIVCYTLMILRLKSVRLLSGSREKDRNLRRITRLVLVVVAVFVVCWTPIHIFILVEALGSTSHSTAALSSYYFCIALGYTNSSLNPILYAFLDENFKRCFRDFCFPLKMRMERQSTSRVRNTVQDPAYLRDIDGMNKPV
T6 sequence (P21554 whole entry): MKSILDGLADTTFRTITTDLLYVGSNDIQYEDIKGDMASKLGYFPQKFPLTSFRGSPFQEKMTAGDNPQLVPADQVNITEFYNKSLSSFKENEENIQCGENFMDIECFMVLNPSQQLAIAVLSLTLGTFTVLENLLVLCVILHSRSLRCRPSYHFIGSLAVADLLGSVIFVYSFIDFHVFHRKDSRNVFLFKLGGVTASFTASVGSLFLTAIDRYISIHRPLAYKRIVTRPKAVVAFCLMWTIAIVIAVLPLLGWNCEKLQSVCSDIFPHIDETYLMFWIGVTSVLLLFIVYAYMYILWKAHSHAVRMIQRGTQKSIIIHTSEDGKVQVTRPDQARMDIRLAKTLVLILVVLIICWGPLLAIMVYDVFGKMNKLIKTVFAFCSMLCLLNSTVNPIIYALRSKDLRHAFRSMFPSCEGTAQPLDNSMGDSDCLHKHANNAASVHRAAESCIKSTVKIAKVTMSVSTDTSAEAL
T2 sequence (P63165 whole entry): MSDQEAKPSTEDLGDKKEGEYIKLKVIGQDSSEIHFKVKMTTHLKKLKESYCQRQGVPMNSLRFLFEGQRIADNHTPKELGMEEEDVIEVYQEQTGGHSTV
T9 sequence (P35372 whole entry): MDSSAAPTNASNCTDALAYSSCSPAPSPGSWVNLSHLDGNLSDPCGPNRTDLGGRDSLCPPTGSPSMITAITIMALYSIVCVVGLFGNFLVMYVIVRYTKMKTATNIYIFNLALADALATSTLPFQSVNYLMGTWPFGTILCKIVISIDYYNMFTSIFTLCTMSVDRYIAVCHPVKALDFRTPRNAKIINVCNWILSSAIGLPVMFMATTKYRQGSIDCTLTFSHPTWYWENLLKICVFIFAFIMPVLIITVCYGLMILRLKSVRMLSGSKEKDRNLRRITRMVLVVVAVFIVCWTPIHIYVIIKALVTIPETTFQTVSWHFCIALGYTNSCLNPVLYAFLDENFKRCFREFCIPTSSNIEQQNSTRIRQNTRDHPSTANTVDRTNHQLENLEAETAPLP
T5 sequence (Q9HC97 whole entry): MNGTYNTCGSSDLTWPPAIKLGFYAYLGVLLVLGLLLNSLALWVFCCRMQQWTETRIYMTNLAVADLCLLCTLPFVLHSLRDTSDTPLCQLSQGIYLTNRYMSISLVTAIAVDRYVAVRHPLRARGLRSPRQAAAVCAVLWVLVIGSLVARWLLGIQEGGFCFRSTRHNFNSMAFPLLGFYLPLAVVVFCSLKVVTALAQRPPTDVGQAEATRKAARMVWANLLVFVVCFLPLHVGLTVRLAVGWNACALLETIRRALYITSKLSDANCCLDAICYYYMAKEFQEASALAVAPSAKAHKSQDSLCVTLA
T4 sequence (Q9Y2T6 whole entry): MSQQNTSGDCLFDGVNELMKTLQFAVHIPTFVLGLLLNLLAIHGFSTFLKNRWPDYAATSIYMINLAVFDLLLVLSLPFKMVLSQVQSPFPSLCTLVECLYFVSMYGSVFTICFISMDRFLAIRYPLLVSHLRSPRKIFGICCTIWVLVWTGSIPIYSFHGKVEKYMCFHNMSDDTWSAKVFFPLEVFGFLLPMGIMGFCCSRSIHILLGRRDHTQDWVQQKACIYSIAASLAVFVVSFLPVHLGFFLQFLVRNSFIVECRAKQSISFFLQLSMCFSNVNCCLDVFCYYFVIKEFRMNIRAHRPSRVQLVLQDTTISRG
T7 sequence (P34972 whole entry): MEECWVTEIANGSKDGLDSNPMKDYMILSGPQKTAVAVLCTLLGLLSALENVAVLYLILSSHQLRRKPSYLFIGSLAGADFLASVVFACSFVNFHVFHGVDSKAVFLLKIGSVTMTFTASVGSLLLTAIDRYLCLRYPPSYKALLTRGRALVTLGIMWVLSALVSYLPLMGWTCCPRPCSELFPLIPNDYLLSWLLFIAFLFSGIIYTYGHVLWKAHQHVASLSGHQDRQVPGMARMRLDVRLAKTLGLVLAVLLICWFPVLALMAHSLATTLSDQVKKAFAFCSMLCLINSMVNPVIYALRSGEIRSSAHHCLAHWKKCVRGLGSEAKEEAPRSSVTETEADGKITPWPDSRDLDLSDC
T3 sequence (P51452 whole entry): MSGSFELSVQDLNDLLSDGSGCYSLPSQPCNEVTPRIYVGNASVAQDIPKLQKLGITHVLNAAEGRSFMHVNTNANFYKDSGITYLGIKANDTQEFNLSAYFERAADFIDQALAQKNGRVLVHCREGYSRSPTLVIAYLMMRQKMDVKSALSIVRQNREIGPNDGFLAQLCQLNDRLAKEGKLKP
T11 sequence (P41143 whole entry): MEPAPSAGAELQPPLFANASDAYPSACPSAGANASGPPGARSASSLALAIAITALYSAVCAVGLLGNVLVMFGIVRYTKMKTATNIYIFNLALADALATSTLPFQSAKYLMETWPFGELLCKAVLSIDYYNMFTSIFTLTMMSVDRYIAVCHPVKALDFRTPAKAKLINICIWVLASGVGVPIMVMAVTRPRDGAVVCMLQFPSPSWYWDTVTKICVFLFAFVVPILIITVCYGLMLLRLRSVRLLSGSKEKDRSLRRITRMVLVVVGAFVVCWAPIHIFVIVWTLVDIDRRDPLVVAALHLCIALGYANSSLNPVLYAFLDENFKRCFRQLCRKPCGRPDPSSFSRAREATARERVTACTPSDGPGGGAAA
Chain of Sphingosine 1-phosphate receptor 4 (O95977 whole entry): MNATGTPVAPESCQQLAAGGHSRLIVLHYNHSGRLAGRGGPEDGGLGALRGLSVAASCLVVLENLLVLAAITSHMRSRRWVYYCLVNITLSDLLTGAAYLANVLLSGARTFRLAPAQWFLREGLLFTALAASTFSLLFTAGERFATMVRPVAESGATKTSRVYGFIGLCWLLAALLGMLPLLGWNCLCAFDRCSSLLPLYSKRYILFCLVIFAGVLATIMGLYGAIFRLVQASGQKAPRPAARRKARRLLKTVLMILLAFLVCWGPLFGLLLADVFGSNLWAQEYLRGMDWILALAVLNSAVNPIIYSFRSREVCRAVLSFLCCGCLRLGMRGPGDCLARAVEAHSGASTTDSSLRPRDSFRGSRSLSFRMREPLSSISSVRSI
Chain of Sphingosine 1-phosphate receptor 1 (P21453 whole entry): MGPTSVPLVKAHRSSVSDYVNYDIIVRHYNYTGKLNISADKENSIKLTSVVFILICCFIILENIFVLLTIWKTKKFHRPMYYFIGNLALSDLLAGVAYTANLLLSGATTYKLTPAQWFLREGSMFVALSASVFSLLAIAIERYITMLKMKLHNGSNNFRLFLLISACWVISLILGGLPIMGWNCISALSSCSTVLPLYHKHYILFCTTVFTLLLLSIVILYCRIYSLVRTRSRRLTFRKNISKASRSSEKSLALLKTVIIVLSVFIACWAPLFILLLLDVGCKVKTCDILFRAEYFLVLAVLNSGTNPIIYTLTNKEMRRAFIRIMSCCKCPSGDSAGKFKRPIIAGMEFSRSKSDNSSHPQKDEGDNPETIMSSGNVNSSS
Chain of Tumor necrosis factor (P01375 whole entry): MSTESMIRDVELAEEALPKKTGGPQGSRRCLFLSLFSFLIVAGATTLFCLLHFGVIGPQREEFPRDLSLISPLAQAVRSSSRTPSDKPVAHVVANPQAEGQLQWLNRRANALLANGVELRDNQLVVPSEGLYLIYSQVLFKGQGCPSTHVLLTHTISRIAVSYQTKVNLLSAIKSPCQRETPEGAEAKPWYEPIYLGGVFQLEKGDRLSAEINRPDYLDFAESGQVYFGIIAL
Chain of Eukaryotic translation initiation factor 4E (P63073 whole entry): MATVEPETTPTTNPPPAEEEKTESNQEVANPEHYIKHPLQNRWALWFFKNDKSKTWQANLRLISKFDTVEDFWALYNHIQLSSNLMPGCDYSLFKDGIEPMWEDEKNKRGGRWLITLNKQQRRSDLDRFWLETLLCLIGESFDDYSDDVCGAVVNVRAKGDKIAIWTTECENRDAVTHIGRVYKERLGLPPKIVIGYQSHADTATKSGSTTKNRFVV
Chain of Dual specificity protein phosphatase 6 (Q64346 whole entry): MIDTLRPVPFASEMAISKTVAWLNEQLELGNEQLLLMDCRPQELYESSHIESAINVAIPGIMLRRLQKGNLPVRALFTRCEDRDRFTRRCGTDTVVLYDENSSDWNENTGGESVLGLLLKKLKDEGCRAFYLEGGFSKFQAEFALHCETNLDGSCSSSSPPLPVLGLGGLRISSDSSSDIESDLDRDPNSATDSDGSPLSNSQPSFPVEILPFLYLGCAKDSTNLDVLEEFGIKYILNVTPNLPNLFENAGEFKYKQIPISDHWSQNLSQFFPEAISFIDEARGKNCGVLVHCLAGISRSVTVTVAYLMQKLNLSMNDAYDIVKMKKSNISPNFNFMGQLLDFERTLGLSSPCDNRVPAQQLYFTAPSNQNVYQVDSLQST

## O=C(CSc1nc(-c2ccc(F)cc2)nc2c1Cc1ccccc1O2)Nc1ccc(C(=O)O)cc1
[1]
  IC50: > 50 µM (not active)
[2]
  IC50: 3.36 µM (active)
[3]
  IC50: 50 µM (inactive)
[4]
  IC50: 23 µM (active)
[5]
  IC50: > 66.6 µM (inactive)
[6]
  IC50: 10.1 µM (active)
[7]
  IC50: 4.04 µM (active)
[8]
  IC50: 5.02 µM (active)

## COCCn1c(C)cc(C(=O)COC(=O)c2cccc(O)c2)c1C
[9]
  EC50: < 0.1 µM (active)
[10]
  EC50: 0.121 µM (active)
HEK293
  IC50: > 20 µM (inactive)
[11]
  IC50: 2.5 µM (active)
[12]
  EC50: 0.137 µM (active)
Tumor necrosis factor
  IC50: 0.704 µM (active)

## N#Cc1cc2c(=O)n3ccccc3nc2n(-c2ccccc2Cl)c1=O
[13]
  EC50: 10.4 µM (inactive)
[9]
  EC50: > 120 µM (not active)
[10]
  EC50: > 120 µM (not active)
[12]
  EC50: 11 µM (active)
[14]
  EC50: 2.88 µM (active)

## Cc1[nH]nc(-c2ccc(O)cc2O)c1-c1ccc(Cl)cc1
[15]
  IC50: 3.44 µM (active)
[16]
  IC50: > 32 µM (inactive)
[17]
  EC50: > 32 µM (inactive)
Cannabinoid receptor 1 [18]
  EC50: > 32 µM (inactive)
[19]
  IC50: 2.05 µM (active)
Cannabinoid receptor 2 [20]
  IC50: > 32 µM (inactive)
Cannabinoid receptor 2 [21]
  EC50: > 32 µM (inactive)
[22]
  EC50: 5.31 µM (active)
Cannabinoid receptor 1 [23]
  IC50: > 32 µM (inactive)

## O=C(c1ccccn1)N(Cc1ccco1)C1(C(=O)Nc2ccc(Br)cc2)CCCCC1
Mu-type opioid receptor [24]
  IC50: > 32 µM (inactive)
[25]
  EC50: 0.423 µM (active)
[26]
  EC50: 0.0983 µM (active)
[27]
  EC50: > 32 µM (inactive)
[28]
  IC50: > 32 µM (inactive)
[29]
  IC50: > 32 µM (inactive)
Mu-type opioid receptor [30]
  EC50: > 32 µM (inactive)

## Clc1ccc(CSc2nnc(-c3ccncc3)n2Cc2ccco2)cc1Cl
[31]
  EC50: > 20 µM (inactive)

Reference: ChEMBL document CHEMBL1201862, “PubChem BioAssay data set” (2004)
